Test results reported in patent US20040110177A1, “Method for identifying functional nucleic acids” (priority 2003, published 2004).

Assays:
Assay type in all cases: cell-based, human
[1] = test system: clone 14 (apoptosis-resistant Hela S3 clone); assay: Anti-Fas (CH-11) induced apoptosis with kinase inhibitors, FACS sub-G1 nuclei, clone 14; settings: clone 14, 100 ng/ml CH-11, no FCS; for change in number of apoptotic cells / apoptosis rate (in words): AG 1295 1 μM, PD 98059 25 μM; for increase in apoptosis: SU 5402 10 μM, SB 203580 10 μM
Experimental: (§1) Cells were grown in Ham's F12 medium without FCS and treated with 100 ng/ml anti-Fas antibody CH-11 with and without inhibitors. Apoptosis was measured by FACS analysis as described in the examples. SU 5402: 10 μM, AG 1295: 1 μM, SB 203580: 10 μM, PD 98059: 25 μM.
The cervix carcinoma cell line Hela S3 (ATCC CCL-2.2) was plated on 10 cm cell culture dishes (10^5 cells) in Ham's F12 growth medium containing 10% FCS. On the next day the medium was exchanged against medium without FCS supplemented with 100 ng/ml apoptosis activating anti-Fas antibody CH-11 (Coulter Immunotech). After 3 days when most of the cells were dead, the medium was exchanged once more against the medium containing 10% FCS without antibody. The surviving cells were clonally cultivated for 3 weeks. The clones were picked and expanded.
(§2) 50000 cells per well obtained from the parental cell line Hela S3 or from the clones, respectively, were grown in a 12 well cell culture dish for 2 days in 2 ml Ham's F12 medium containing 10% FCS. On the third day the cells were washed twice with 1 ml Ham's F12 medium and then the medium exchanged against 1 ml Ham's F12 medium. On the next day the medium was supplemented with the respective inhibitors and 100 to 200 ng/ml CH-11. On the next day the medium was decanted and transferred to an Eppendorf tube. The cells were washed once with 200 μl PBS, the PBS was transferred to the respective Eppendorf tube. Then the remaining cells were also transferred to the respective Eppendorf tube after treatment with EDTA/trypsin in PBS. The cells were pelleted by centrifugation, suspended in 500 μl hypotonic buffer (0.1% sodium citrate, 0.1% Triton-X100, 20 μg/ml propidium iodide) and incubated for 2-24 hours at 4° C. The resutling cell nuclei were analyzed by FACS.
(§3) The propidium iodide fluorescence of single nuclei was determined using a FACSCalibur (Becton Dickinson) cytometer. The forward scatter light (FSC) and the side scatter light (SSC) were recorded simultaneously. The FSC peak was adjusted at channel 500 in a 1024 channel linear scale and the red fluorescence peak at channel 200 of a logarithmic scale. The FSC cut-off value was determined by gating to 95% of the greatest nuclei of a negative control without supplements. Nuclei were classified as apoptotic when a subdiploid signal between the G1/G0 peak and channel 10 was present.

[2] = test system: clone 5 (apoptosis-resistant Hela S3 clone); assay: Anti-Fas (CH-11) induced apoptosis with kinase inhibitors, FACS sub-G1 nuclei, clone 5; settings: clone 5, CH-11; SU 5402, AG 1295
Experimental: as §1
(§4) The cervix carcinoma cell line Hela S3 (ATCC CCL-2.2) was plated on 10 cm cell culture dishes (10^5 cells) in Ham's F12 growth medium containing 10% FCS. On the next day the medium was exchanged against medium without FCS supplemented with 100 ng/ml apoptosis activating anti-Fas antibody CH-11 (Coulter Immunotech). […]
(§5) 50000 cells per well obtained from the parental cell line Hela S3 or from the clones, respectively, were grown in a 12 well cell culture dish for 2 days in 2 ml Ham's F12 medium containing 10% FCS. […] The resutling cell nuclei were analyzed by FACS.
as §3, with “Nuclei were classified as apoptotic when a subdiploid signal between the G1/G0 peak and channel 10 was present.” left out

Hela S3 = assay: Anti-Fas (CH-11) induced apoptosis with kinase inhibitors, FACS sub-G1 nuclei, Hela S3; settings: Hela S3, 100 ng/ml CH-11, no FCS; SU 5402 10 μM, AG 1295 1 μM, SB 203580 10 μM
Experimental: as §1, §2, §3

[3] = test system: clone 20 (apoptosis-resistant Hela S3 clone); assay: Anti-Fas (CH-11) induced apoptosis with kinase inhibitors, FACS sub-G1 nuclei, clone 20; settings: clone 20, 100 ng/ml CH-11, no FCS; SB 203580 10 μM, PD 98059 25 μM
Experimental: as §1, §4, §5
as §3, with “Nuclei were classified as apoptotic when a subdiploid signal between the G1/G0 peak and channel 10 was present.” left out

Compound	change in number of apoptotic cells / apoptosis rate (in words) [1]	increase in apoptosis [2]	increase in apoptosis (Hela S3)	increase in apoptosis [1]	change in apoptosis rate (in words) [3]
Cc1cc2ncc(-c3ccccc3)nc2cc1C [AG 1295]	nearly in a doubling of the number of apoptotic cells	30%	about 30%	–	–
Cc1c[nH]c(/C=C2\C(=O)Nc3ccccc32)c1CCC(=O)O [SU 5402]	–	about 50%	about 50%	~300%	–
COc1cccc(-c2cc(=O)c3ccccc3o2)c1N [PD 98059]	doubling of the apoptosis rate	–	–	–	triples the apoptosis rate
C[S+]([O-])c1ccc(-c2nc(-c3ccncc3)c(-c3ccc(F)cc3)[nH]2)cc1 (centres unmarked) [SB 203580]	–	–	25%	60%	slight increase of apoptosis
